Patent US20250223268A1, “4-Methylsulfonylbenzamide Compound, Preparation Method, Herbicidal Composition And Use” (Jiangsu Flag Chemical Industry Co., Ltd., priority 2022, published 2025)

Legend:
Type in all cases: in vivo
Echinochloa crusgalli [1] = assay: Greenhouse herbicidal activity assay, post-emergence; settings: Post-emergence test, rate 150 g a.i./hm^2, grade by fresh weight inhibition rate
In short: (§1)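 Foliar spray at 3-6 leaves; pot-grown in nutrient soil in growth chamber; air-dried post-spray. Read-out at 14-21 d: fresh weight inhibition, graded A (≥80% to 100%) down to E (<20%); NT = not tested.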

Eclipta prostrata = assay: as above; settings: Post-emergence test, rate 150 g a.i./hm^2, grade by fresh weight inhibition rate
In short: as §1

Cyperus iria = assay: as above; settings: Post-emergence test, rate 150 g a.i./hm^2, grade by fresh weight inhibition rate
In short: as §1

Digitaria sanguinalis = assay: as above; settings: Post-emergence test, rate 150 g a.i./hm^2, grade by fresh weight inhibition rate
In short: as §1

Leptochloa chinensis [2] = assay: as above; settings: Post-emergence test, rate 150 g a.i./hm^2, grade by fresh weight inhibition rate
In short: as §1

Echinochloa crusgalli [3] = assay: Greenhouse herbicidal activity and crop safety comparison (Test Example 2); settings: Rate 150 g/ha
In short: (§2)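 Fresh weight inhibition, banded into grades A to E (E <20%), was rated 14-21 days after foliar spraying of 3-6 leaf plants, or 14-30 days after a soil spray applied 24 h post-sowing.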

[4] = system: Oryza sativa subsp. japonica; assay: as above; settings: Rate 150 g/ha
In short: as §2

Leptochloa chinensis [5] = assay: as above; settings: Rate 150 g/ha
In short: as §2

[6] = system: Oryza sativa subsp. indica; assay: as above; settings: Rate 150 g/ha
In short: as §2

| SMILES | Control efficacy grade, Echinochloa crusgalli (Echinochloa crusgalli [1]) | Control efficacy grade, Eclipta prostrata (Eclipta prostrata) | Control efficacy grade, Cyperus iria (Cyperus iria) | Control efficacy grade, Digitaria sanguinalis (Digitaria sanguinalis) | Control efficacy grade, Leptochloa chinensis (Leptochloa chinensis [2]) | Echinochloa crusgalli, control efficacy grading (fresh weight inhibition rate) (Echinochloa crusgalli [3]) | Oryza sativa subsp. japonica, grading of fresh weight inhibition rate (crop safety) [4] | Leptochloa chinensis, control efficacy grading (fresh weight inhibition rate) (Leptochloa chinensis [5]) | Oryza sativa subsp. indica, grading of fresh weight inhibition rate (crop safety) [6] | pest or weed control at 150 g/ha (Echinochloa crusgalli [1]; Echinochloa crus-galli, read-out: Control efficacy grade, Echinochloa crusgalli) [%] | pest or weed control at 150 g/ha (Eclipta prostrata; Eclipta prostrata, read-out: Control efficacy grade, Eclipta prostrata) [%] | pest or weed control at 150 g/ha (Cyperus iria; Cyperus iria, read-out: Control efficacy grade, Cyperus iria) [%] | pest or weed control at 150 g/ha (Digitaria sanguinalis; Digitaria sanguinalis, read-out: Control efficacy grade, Digitaria sanguinalis) [%] | pest or weed control at 150 g/ha (Leptochloa chinensis [2]; Dinebra chinensis, read-out: Control efficacy grade, Leptochloa chinensis) [%] | inhibition at 150 g/ha (Echinochloa crusgalli [3]; Echinochloa crus-galli, read-out: Echinochloa crusgalli, control efficacy grading (fresh weight inhibition rate)) [%] | inhibition at 150 g/ha (Leptochloa chinensis [5]; Dinebra chinensis, read-out: Leptochloa chinensis, control efficacy grading (fresh weight inhibition rate)) [%] |
| --- | --- | --- | --- | --- | --- | --- | --- | --- | --- | --- | --- | --- | --- | --- | --- | --- |
| Cc1nnc(NC(=O)c2ccc(S(C)(=O)=O)c(S(=O)(=O)CC(F)(F)F)c2Cl)o1 [Compound 3-101] | A (Fresh weight inhibition rate≥80% to 100%) | A (Fresh weight inhibition rate≥80% to 100%) | A (Fresh weight inhibition rate≥80% to 100%) | A (Fresh weight inhibition rate≥80% to 100%) | A (Fresh weight inhibition rate≥80% to 100%) | A (Fresh weight inhibition rate≥80% to 100%) | E (Fresh weight inhibition rate<20%) | A (Fresh weight inhibition rate≥80% to 100%) | E (Fresh weight inhibition rate<20%) | – | – | – | – | – | – | – |
| C=CCS(=O)(=O)c1c(S(C)(=O)=O)ccc(C(=O)Nc2nnc(C)o2)c1Cl [Compound 3-116] | A (Fresh weight inhibition rate≥80% to 100%) | A (Fresh weight inhibition rate≥80% to 100%) | C (Fresh weight inhibition rate≥40% to <60%) | A (Fresh weight inhibition rate≥80% to 100%) | A (Fresh weight inhibition rate≥80% to 100%) | A (Fresh weight inhibition rate≥80% to 100%) | E (Fresh weight inhibition rate<20%) | A (Fresh weight inhibition rate≥80% to 100%) | E (Fresh weight inhibition rate<20%) | – | – | – | – | – | – | – |
| CCCS(=O)(=O)c1c(S(C)(=O)=O)ccc(C(=O)Nc2nnco2)c1Cl [Compound 3-271, 2-chloro-4-(methylsulfonyl)-N-(1,3,4-oxadiazol-2-yl)-3-(propylsulfonyl)benzamide] | – | – | – | – | – | – | E (Fresh weight inhibition rate<20%) | – | E (Fresh weight inhibition rate<20%) | 80 to 100 | 80 to 100 | 80 to 100 | 80 to 100 | 80 to 100 | 80 to 100 | 80 to 100 |
| CC(C)S(=O)(=O)c1c(S(C)(=O)=O)ccc(C(=O)Nc2nnco2)c1Cl [Compound 3-276] | A (Fresh weight inhibition rate≥80% to 100%) | A (Fresh weight inhibition rate≥80% to 100%) | A (Fresh weight inhibition rate≥80% to 100%) | A (Fresh weight inhibition rate≥80% to 100%) | A (Fresh weight inhibition rate≥80% to 100%) | A (Fresh weight inhibition rate≥80% to 100%) | E (Fresh weight inhibition rate<20%) | A (Fresh weight inhibition rate≥80% to 100%) | E (Fresh weight inhibition rate<20%) | – | – | – | – | – | – | – |
| CS(=O)(=O)c1ccc(C(=O)Nc2nnco2)c(Cl)c1S(=O)(=O)CC1CC1 [Compound 3-302] | A (Fresh weight inhibition rate≥80% to 100%) | A (Fresh weight inhibition rate≥80% to 100%) | A (Fresh weight inhibition rate≥80% to 100%) | A (Fresh weight inhibition rate≥80% to 100%) | A (Fresh weight inhibition rate≥80% to 100%) | A (Fresh weight inhibition rate≥80% to 100%) | E (Fresh weight inhibition rate<20%) | A (Fresh weight inhibition rate≥80% to 100%) | E (Fresh weight inhibition rate<20%) | – | – | – | – | – | – | – |
| CS(=O)(=O)c1ccc(C(=O)Nc2nnco2)c(Cl)c1S(=O)(=O)C1CC1 [Compound 3-307] | A (Fresh weight inhibition rate≥80% to 100%) | A (Fresh weight inhibition rate≥80% to 100%) | A (Fresh weight inhibition rate≥80% to 100%) | A (Fresh weight inhibition rate≥80% to 100%) | A (Fresh weight inhibition rate≥80% to 100%) | A (Fresh weight inhibition rate≥80% to 100%) | E (Fresh weight inhibition rate<20%) | A (Fresh weight inhibition rate≥80% to 100%) | E (Fresh weight inhibition rate<20%) | – | – | – | – | – | – | – |
| CS(=O)(=O)c1ccc(C(=O)Nc2nnco2)c(Cl)c1S(=O)(=O)C1CCC1 [Compound 3-312] | A (Fresh weight inhibition rate≥80% to 100%) | A (Fresh weight inhibition rate≥80% to 100%) | A (Fresh weight inhibition rate≥80% to 100%) | A (Fresh weight inhibition rate≥80% to 100%) | A (Fresh weight inhibition rate≥80% to 100%) | A (Fresh weight inhibition rate≥80% to 100%) | E (Fresh weight inhibition rate<20%) | A (Fresh weight inhibition rate≥80% to 100%) | E (Fresh weight inhibition rate<20%) | – | – | – | – | – | – | – |
| CS(=O)(=O)c1ccc(C(=O)Nc2nnco2)c(Cl)c1S(=O)(=O)C1CCCC1 [Compound 3-317] | A (Fresh weight inhibition rate≥80% to 100%) | A (Fresh weight inhibition rate≥80% to 100%) | A (Fresh weight inhibition rate≥80% to 100%) | A (Fresh weight inhibition rate≥80% to 100%) | A (Fresh weight inhibition rate≥80% to 100%) | A (Fresh weight inhibition rate≥80% to 100%) | E (Fresh weight inhibition rate<20%) | A (Fresh weight inhibition rate≥80% to 100%) | E (Fresh weight inhibition rate<20%) | – | – | – | – | – | – | – |
| CS(=O)(=O)c1ccc(C(=O)Nc2nnco2)c(Cl)c1S(=O)(=O)CC(F)(F)F [Compound 3-327] | A (Fresh weight inhibition rate≥80% to 100%) | A (Fresh weight inhibition rate≥80% to 100%) | A (Fresh weight inhibition rate≥80% to 100%) | B (Fresh weight inhibition rate≥260% to <80%) | A (Fresh weight inhibition rate≥80% to 100%) | A (Fresh weight inhibition rate≥80% to 100%) | E (Fresh weight inhibition rate<20%) | A (Fresh weight inhibition rate≥80% to 100%) | E (Fresh weight inhibition rate<20%) | – | – | – | – | – | – | – |
| C=CCS(=O)(=O)c1c(S(C)(=O)=O)ccc(C(=O)Nc2nnco2)c1Cl [Compound 3-342] | A (Fresh weight inhibition rate≥80% to 100%) | A (Fresh weight inhibition rate≥80% to 100%) | A (Fresh weight inhibition rate≥80% to 100%) | A (Fresh weight inhibition rate≥80% to 100%) | A (Fresh weight inhibition rate≥80% to 100%) | A (Fresh weight inhibition rate≥80% to 100%) | E (Fresh weight inhibition rate<20%) | A (Fresh weight inhibition rate≥80% to 100%) | E (Fresh weight inhibition rate<20%) | – | – | – | – | – | – | – |
